Among the test systems are 786-0; ACHN; CAKI-1; CCRF-CEM; HCT-116; HL-60; HT-29; Hs-578T; K562; MOLT-4; RPMI-8226; RXF 393; SF-295; SF-539; SK-OV-3; SNB-19; SNB-75; TK-10; U-251; UO-31.
Holding throughout (experiment): NCI-60 cell line screen, 48 h

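In this assay, cells in 96-well plates receive the compound at five concentrations for 48 hours. Endpoints are linearly interpolated between the surrounding concentrations. GI50 = concentration required for 50% inhibition of growth.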 The source made the active and inactive calls. No stated cut-off is given here; in the data, active = GI50 up to about 1.1 µM and inactive = higher.

On to `COc1cc2c(/C=C3/C(=O)Nc4ccccc43)c(Cl)n(Cc3ccc(Cl)cc3)c2cc1C`, for which the GI50 in the experiment with 786-0 was 0.323 µM (active); with ACHN, 0.324 µM (active); with CAKI-1 it was 0.263 µM (active); in the experiment on CCRF-CEM, 0.29 µM (active); with HCT-116, 0.264 µM (active); with HL-60, 0.373 µM (active). The GI50 is 0.296 µM (active) with HT-29; 0.401 µM (active) in the experiment with Hs-578T; 0.365 µM (active) in the experiment on K562; 0.264 µM (active) in the experiment on MOLT-4; 0.27 µM (active) in the experiment on RPMI-8226; 0.339 µM (active) in the experiment with RXF 393. Moreover, the GI50 in the experiment with SF-295 is 0.333 µM (active); in the experiment on SF-539 it was 0.27 µM (active); with SK-OV-3, 0.305 µM (active); in the experiment with SNB-19, 0.43 µM (active); in the experiment on SNB-75, 0.237 µM (active); with TK-10, 0.565 µM (active). Further, the GI50 in the experiment with U-251 was 0.307 µM (active); with UO-31, 0.826 µM (active).

For `COC(=O)c1cc(C#N)[nH]c1-c1ccc(Br)s1`, the GI50 with 786-0 was 14.5 µM (inactive); in the experiment on ACHN, 13.7 µM (inactive); in the experiment on CAKI-1, 19.2 µM (inactive); in the experiment on CCRF-CEM, 21.1 µM (inactive); in the experiment on HCT-116, 13.5 µM (inactive); in the experiment with HL-60 it was 11.5 µM (inactive). The GI50 was 12.4 µM (inactive) with HT-29; 5.74 µM (inactive) with Hs-578T; > 30.8 µM (inactive) in the experiment with K562; 12.3 µM (inactive) in the experiment with MOLT-4; 5.08 µM (inactive) in the experiment on RPMI-8226; 4.3 µM (inactive) with RXF 393. In addition, the GI50 with SF-295 was 8.41 µM (inactive); in the experiment with SF-539, 12.8 µM (inactive); in the experiment on SK-OV-3, 11.6 µM (inactive); in the experiment on SNB-19 it was 7.74 µM (inactive); in the experiment with SNB-75, 8.85 µM (inactive); in the experiment on TK-10 it was 13 µM (inactive). Moreover, the GI50 in the experiment on U-251 is 10.4 µM (inactive); with UO-31, 5.7 µM (inactive).

With `CCc1nc(N)nc(N)c1-c1ccc(NCCc2ccccc2)c([N+](=O)[O-])c1`, the GI50 in the experiment on 786-0 is 0.211 µM (active); with ACHN it was 0.353 µM (active); with CAKI-1, 0.39 µM (active); with CCRF-CEM, 0.297 µM (active); with HCT-116, 0.0649 µM (active); with HL-60, 0.186 µM (active). Besides, the GI50 with HT-29 is 0.195 µM (active); with Hs-578T, 9.66 µM (inactive); in the experiment with K562, 0.0325 µM (active); in the experiment with MOLT-4 it was 0.491 µM (active); with RPMI-8226 it was 1.11 µM (active); in the experiment on RXF 393 it was 3.55 µM (inactive). In addition, the GI50 in the experiment with SF-295 is 0.317 µM (active); with SF-539 it was 0.741 µM (active); in the experiment on SK-OV-3, 16.5 µM (inactive); with SNB-19 it was 2.21 µM (inactive); in the experiment with SNB-75 it was 3.56 µM (inactive); with TK-10 it was 13.3 µM (inactive). Moreover, the GI50 is 0.364 µM (active) in the experiment with U-251 and 1.86 µM (inactive) in the experiment on UO-31.

In the case of `O=C(Nc1cccc(C(F)(F)F)c1)c1cc(Br)cc(Br)c1O` [FLUOROSALAN], the GI50 with 786-0 was 3.63 µM (inactive); in the experiment with ACHN it was 3.06 µM (inactive); in the experiment with CAKI-1, 2.3 µM (inactive); in the experiment on CCRF-CEM it was 3.22 µM (inactive); with HCT-116, 2.32 µM (inactive); in the experiment on HL-60, 2.34 µM (inactive). Further, the GI50 in the experiment with HT-29 is 3.91 µM (inactive); with Hs-578T, 3.4 µM (inactive); with K562, 2.08 µM (inactive); in the experiment on MOLT-4 it was 3.15 µM (inactive); in the experiment on RPMI-8226 it was 2.08 µM (inactive); in the experiment with RXF 393, 2.71 µM (inactive). Further, the GI50 in the experiment on SF-295 is 2.62 µM (inactive); in the experiment on SF-539, 3.55 µM (inactive); in the experiment on SK-OV-3, 2.81 µM (inactive); in the experiment on SNB-19, 2.77 µM (inactive); in the experiment on SNB-75, 3.35 µM (inactive); in the experiment with TK-10, 2.96 µM (inactive). Further, the GI50 in the experiment with U-251 is 3.79 µM (inactive); with UO-31, 2.35 µM (inactive).

Source of the values: ChEMBL document CHEMBL1201862, “PubChem BioAssay data set” (2004).
